Measured values taken from US11371061B2, “Compositions and methods for improving viral vector efficiency” (GENETHON, priority 2015, dated 2022).
Where no end group is shown, it is not given here.

What was measured:
HCT116 cells = type: cell-based, human

YGRKKRRQRRR GG FEIWHDGEFGTINNFRLGRLPSVPV (YGRKKRRQRRRGGFEIWHDGEFGTINNFRLGRLPSVPV; Synthetic TB1 274-298) [Tat-Bec(274-298)]
capacity to promote lentiviral transduction at 2.5 μM (HCT116 cells): most of the derivatives are a lot more efficient than TB1, except for Tat-Bec(274-298)

YGRKKRRQRRR GG INCFTATFEIWVEGPLGV (YGRKKRRQRRRGGINCFTATFEIWVEGPLGV; Synthetic TAT+ GG + Beclin2) [Tat-Bec2WT]
effect on lentiviral transduction at 100 nM (HCT116 cells): three-folds | lentiviral transduction at 100 nM (HCT116 cells): 30% | optimal dose to promote lentiviral transduction (HCT116 cells): 500 nM

YGRKKRRQRRR TNVFNATFEIWHDGEFGTINNFRLGRLPSV (YGRKKRRQRRRTNVFNATFEIWHDGEFGTINNFRLGRLPSV; Synthetic modified Tat-Beclin-1 + beclin-1 285-296) [Tat-Bec(267-296)dGG]
increase of the level of viral transduction (HCT116 cells): nearly five folds

KKALLHAALAHLLALAHHLLALLKKA-NH2 [Vectofusin-1]
aggregation of viral particles (pull-down) (VSV-G-LV particles): aggregation of viral particles, like it is the case for Vectofusin-1

YGRKKRRQRRR GG VENQMRYAQTQLDKLKKTNVFNATFEIWHDGEF (YGRKKRRQRRRGGVENQMRYAQTQLDKLKKTNVFNATFEIWHDGEF; Synthetic TB1 250-282) [Tat-Bec(250-282)]
capacity to promote lentiviral transduction at 2.5 μM (HCT116 cells): most performant peptide at a low dose

YGRKKRRQRRR (Synthetic Tat (47-57)) [the Tat transduction domain, reference compound]
capacity to promote lentiviral transduction (HCT116 cells): neither Tat nor Bec peptides are capable to promote lentiviral transduction

YGRKKRRQRRR GG TNVFNATFHIWHSGQFGT (YGRKKRRQRRRGGTNVFNATFHIWHSGQFGT; Synthetic TB WT) [Tat-BecWT]
capacity to promote lentiviral transduction at 2.5 μM (HCT116 cells): capable to promote lentiviral transduction as efficiently as TB1 | capacity to promote lentiviral transduction at 5 μM (HCT116 cells): no longer active | effect on lentiviral transduction at 100 nM (HCT116 cells): no effect | optimal dose to promote lentiviral transduction (HCT116 cells): 1000 nM

YGRKKRRQRRR GG TNVFNATFEIWHDGEFGTINNFRLGRLPSV (YGRKKRRQRRRGGTNVFNATFEIWHDGEFGTINNFRLGRLPSV; Synthetic TB1 267-296) [Tat-Bec(267-296)]
dose capable to promote optimal lentiviral transduction (HCT116 cells): ≥ 1 µM

YGRKKRRQRRR GG TNVFNATFHIWHSGQFGTINNFRLGRLPSV (YGRKKRRQRRRGGTNVFNATFHIWHSGQFGTINNFRLGRLPSV; Synthetic TB WT 267-296) [Tat-Bec(267-296)WT]
capacity to promote lentiviral transduction at 2.5 μM (HCT116 cells): promoting the lentiviral transduction but less efficiently than the Tat-Bec(267-296) peptide

KLALKLALKALKAALKA G TNVFNATFEIWHDGEFGT (KLALKLALKALKAALKAGTNVFNATFEIWHDGEFGT; Synthetic MAP-B1) [MAP-Beclin1]
capacity to promote lentiviral transduction (HCT116 cells): as efficient as TB1

TNVFNATFEIWHDGEFGT (Synthetic modified beclin-1 267-284) [the 267-284 modified beclin1 domain, reference compound]
capacity to promote lentiviral transduction (HCT116 cells): neither Tat nor Bec peptides are capable to promote lentiviral transduction
